Consider six molecules from patent US20150141336A1, “Pancreatic Peptide Compounds and Use” (Novo Nordisk A/S, priority 2012, published 2015).

Like-named read-outs stand apart in the source and are kept apart here.

In general, half-life refers to the time in which the quantity being followed falls by half.

Data set [1] is described as follows: Assay (II) PK i.v. minipig, in vivo half-life. Details: species or system Göttingen mini-pigs. Particulars: male, Göttingen, iv. The gist of the method: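 Male Göttingen mini-pigs (18–22 kg, n=5) received 6 nmol/kg i.v. via central catheter, formulated in 50 mM K2HPO4, 0.05% tween 80, pH 8.0. EDTA plasma sampled pre-dose to 240 h, quantified by TFC/LC/MS/MS (MRM, range 1-2000 nmol/l); half-life from non-compartmental analysis per animal.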

Data set [2] in a line: Assay (X) determination of effect on body weight in mice on high fat diet. Type of data set: in vivo, C57B16J mice. The settings on record: male C57 DIO mice, s.c., 0.3 μmol/kg once daily; FIG. 1. The source says:
Additional assays useful to the invention comprise those that can determine the effect of PP peptides on body weight and/or body composition. An exemplary assay is the following which involves utilization of a diet induced obese male […] mouse model for metabolic disease: […] (Taconic, Denmark) on regular diurnal rhythm and with access to a high fat diet (D12492, Research Diet, USA) are used. The mice are weighed on a weekly basis. Mice are received at age 5 weeks and put on high fat diet and housed at 24 degree Celsius in normal daily rhythm. Mice are group housed 10 per cage during an obesity induction period of 14 weeks. Two weeks before study start mice are single housed (two mice per cage with a dividing wall between). […] Body weight for all mice is recorded daily in combination with dosing. […] Data are analysed in Graph Pad Prism. Change of body weight from baseline in male C57 DIO mice (mean±SEM, n=10) after s.c. administration of compound AF (0.03 μmol/kg once daily or 0.1 μmol/kg every other day) or the reference compound human PP(2-36) (0.3 μmol/kg, once daily) was determined using Assay (X). […] Change of body weight (mean±SEM, n=10-12) and change of body weight from baseline (mean±SEM, n=10) in male […] mice on a high fat diet after administration of vehicle, compound BN (1 μmol/kg/day, s.c.) or reference compound 1 (500 nmol/kg/day, pump) was determined using Assay (X).

The conditions of data set [3]: minipig, in vivo; cited from earlier work.
For data set [4] the following is noted: human, in vivo; cited from earlier work.
The mark [5] stands for this setting: minipig, Half-life minipig, Assay (II).

As to `CC[C@H](C)[C@H](NC(=O)[C@H](Cc1ccc(O)cc1)NC(=O)[C@H](CCCNC(=N)N)NC(=O)[C@H](CCCNC(=N)N)NC(=O)[C@H](CC(C)C)NC(=O)[C@H](CC(=O)O)NC(=O)[C@H](C)NC(=O)[C@H](C)NC(=O)[C@H](Cc1ccc(O)cc1)NC(=O)[C@H](CCC(N)=O)NC(=O)[C@H](C)NC(=O)[C@H](CCSC)NC(=O)[C@H](CCC(N)=O)NC(=O)[C@H](CCC(=O)O)NC(=O)[C@@H]1CCCN1C(=O)[C@@H](NC(=O)[C@H](CCCCNC(=O)COCCOCCNC(=O)COCCOCCNC(=O)CC[C@H](NC(=O)CCCCCCCCCCCCCCCCC(=O)O)C(=O)O)NC(=O)[C@H](CC(N)=O)NC(=O)[C@H](CC(=O)O)NC(=O)CNC(=O)[C@@H]1CCCN1C(=O)[C@H](Cc1ccc(O)cc1)NC(=O)[C@@H](NC(=O)[C@@H]1CCCN1C(=O)[C@H](CCC(=O)O)NC(=O)[C@H](CC(C)C)NC(=O)[C@@H]1CCCN1)C(C)C)[C@@H](C)O)C(=O)N[C@@H](CC(N)=O)C(=O)N[C@@H](CCSC)C(=O)N[C@@H](CC(C)C)C(=O)N[C@H](C(=O)N[C@@H](CCCNC(=N)N)C(=O)N1CCC[C@H]1C(=O)N[C@@H](CCCNC(=N)N)C(=O)N[C@@H](Cc1ccc(O)cc1)C(N)=O)[C@@H](C)O` [Compound V], the half-life in data set [1] (setting [5]) was 36 h.

As to `CC[C@H](C)[C@H](NC(=O)[C@H](Cc1ccc(O)cc1)NC(=O)[C@H](CCCNC(=N)N)NC(=O)[C@H](CCCNC(=N)N)NC(=O)[C@H](CC(C)C)NC(=O)[C@H](CC(=O)O)NC(=O)[C@H](C)NC(=O)[C@H](C)NC(=O)[C@H](Cc1ccc(O)cc1)NC(=O)[C@H](CCC(N)=O)NC(=O)[C@H](C)NC(=O)[C@H](CCSC)NC(=O)[C@H](CCC(N)=O)NC(=O)[C@H](CCC(=O)O)NC(=O)[C@@H]1CCCN1C(=O)[C@@H](NC(=O)[C@H](C)NC(=O)[C@H](CCCCNC(=O)COCCOCCNC(=O)COCCOCCNC(=O)CC[C@H](NC(=O)CCCCCCCCCCCCCCCCC(=O)O)C(=O)O)NC(=O)[C@H](CC(=O)O)NC(=O)CNC(=O)[C@@H]1CCCN1C(=O)[C@H](Cc1ccc(O)cc1)NC(=O)[C@@H](NC(=O)[C@@H]1CCCN1C(=O)[C@H](CCC(=O)O)NC(=O)[C@H](CC(C)C)NC(=O)[C@@H]1CCCN1)C(C)C)[C@@H](C)O)C(=O)N[C@@H](CC(N)=O)C(=O)N[C@@H](CCSC)C(=O)N[C@@H](CC(C)C)C(=O)N[C@H](C(=O)N[C@@H](CCCNC(=N)N)C(=O)N1CCC[C@H]1C(=O)N[C@@H](CCCNC(=N)N)C(=O)N[C@@H](Cc1ccc(O)cc1)C(N)=O)[C@@H](C)O` [Compound W], the half-life in data set [1] (Table 2, PP(2-36) based, crude sample, i.v. minipig, read-out: Half-life minipig, Assay (II) (converted)) is 29 h.

As for `CC[C@H](C)[C@H](NC(=O)[C@H](Cc1ccc(O)cc1)NC(=O)[C@H](CCCNC(=N)N)NC(=O)[C@H](CCCNC(=N)N)NC(=O)[C@H](CC(C)C)NC(=O)[C@H](CC(=O)O)NC(=O)[C@H](C)NC(=O)[C@H](C)NC(=O)[C@H](Cc1ccc(O)cc1)NC(=O)[C@H](CCC(N)=O)NC(=O)[C@H](C)NC(=O)[C@H](CCSC)NC(=O)[C@H](CCC(N)=O)NC(=O)[C@H](CCC(=O)O)NC(=O)[C@@H]1CCCN1C(=O)[C@@H](NC(=O)[C@H](C)NC(=O)[C@H](CC(N)=O)NC(=O)[C@H](CCCCNC(=O)COCCOCCNC(=O)COCCOCCNC(=O)CC[C@H](NC(=O)CCCCCCCCCCCCCCCCC(=O)O)C(=O)O)NC(=O)CNC(=O)[C@@H]1CCCN1C(=O)[C@H](Cc1ccc(O)cc1)NC(=O)[C@@H](NC(=O)[C@@H]1CCCN1C(=O)[C@H](CCC(=O)O)NC(=O)[C@H](CC(C)C)NC(=O)[C@@H]1CCCN1)C(C)C)[C@@H](C)O)C(=O)N[C@@H](CC(N)=O)C(=O)N[C@@H](CCSC)C(=O)N[C@@H](CC(C)C)C(=O)N[C@H](C(=O)N[C@@H](CCCNC(=N)N)C(=O)N1CCC[C@H]1C(=O)N[C@@H](CCCNC(=N)N)C(=O)N[C@@H](Cc1ccc(O)cc1)C(N)=O)[C@@H](C)O` [Compound X], the half-life in data set [1] (setting [5]) is 47 h.

Turning to `CC[C@H](C)[C@H](NC(=O)[C@H](Cc1ccc(O)cc1)NC(=O)[C@H](CCCNC(=N)N)NC(=O)[C@H](CCCNC(=N)N)NC(=O)[C@H](CC(C)C)NC(=O)[C@H](CC(=O)O)NC(=O)[C@H](C)NC(=O)[C@H](C)NC(=O)[C@H](Cc1ccc(O)cc1)NC(=O)[C@H](CCC(N)=O)NC(=O)[C@H](C)NC(=O)[C@H](CCSC)NC(=O)[C@H](CCC(N)=O)NC(=O)[C@H](CCC(=O)O)NC(=O)[C@@H]1CCCN1C(=O)[C@@H](NC(=O)[C@H](C)NC(=O)[C@H](CC(N)=O)NC(=O)[C@H](CC(=O)O)NC(=O)CNC(=O)[C@@H]1CCCN1C(=O)[C@H](Cc1ccc(O)cc1)NC(=O)[C@@H](NC(=O)[C@@H]1CCCN1C(=O)[C@H](CCC(=O)O)NC(=O)[C@H](CC(C)C)NC(=O)[C@@H]1CCCN1C(=O)[C@H](C)N)C(C)C)[C@@H](C)O)C(=O)N[C@@H](CC(N)=O)C(=O)N[C@@H](CCSC)C(=O)N[C@@H](CC(C)C)C(=O)N[C@H](C(=O)N[C@@H](CCCNC(=N)N)C(=O)N1CCC[C@H]1C(=O)N[C@@H](CCCNC(=N)N)C(=O)N[C@@H](Cc1ccc(O)cc1)C(N)=O)[C@@H](C)O` [PP(2-36)], the “Change of body weight from baseline” value in data set [2] is recorded as “reduction in body weight”.

Consider `CC[C@H](C)[C@H](NC(=O)[C@H](Cc1ccc(O)cc1)NC(=O)[C@H](CCCNC(=N)N)NC(=O)[C@H](CCCNC(=N)N)NC(=O)[C@H](CC(C)C)NC(=O)[C@H](CC(=O)O)NC(=O)[C@H](C)NC(=O)[C@H](C)NC(=O)[C@H](Cc1ccc(O)cc1)NC(=O)[C@H](CCC(N)=O)NC(=O)[C@H](C)NC(=O)[C@H](CCSC)NC(=O)[C@H](CCC(N)=O)NC(=O)[C@H](CCC(=O)O)NC(=O)[C@@H]1CCCN1C(=O)[C@@H](NC(=O)[C@H](C)NC(=O)[C@H](CC(N)=O)NC(=O)[C@H](CC(=O)O)NC(=O)CNC(=O)[C@@H]1CCCN1C(=O)[C@H](Cc1ccc(O)cc1)NC(=O)[C@@H](NC(=O)[C@@H]1CCCN1C(=O)[C@H](CCC(=O)O)NC(=O)[C@H](CC(C)C)NC(=O)[C@@H]1CCCN1C(=O)[C@H](C)N)C(C)C)[C@@H](C)O)C(=O)N[C@@H](CC(N)=O)C(=O)N[C@@H](CCSC)C(=O)N[C@@H](CC(C)C)C(=O)N[C@H](C(=O)N[C@@H](CCCNC(=N)N)C(=O)N1CCC[C@H]1C(=O)N[C@@H](CCCNC(=N)N)C(=O)N[C@@H](Cc1ccc(O)cc1)C(N)=O)[C@@H](C)O` [PP(3-36)], for which, in data set [3], the half-life entry was “less than 30 minutes”.

As to `CC[C@H](C)[C@H](NC(=O)[C@H](Cc1ccc(O)cc1)NC(=O)[C@H](CCCNC(=N)N)NC(=O)[C@H](CCCNC(=N)N)NC(=O)[C@H](CC(C)C)NC(=O)[C@H](CC(=O)O)NC(=O)[C@H](C)NC(=O)[C@H](C)NC(=O)[C@H](Cc1ccc(O)cc1)NC(=O)[C@H](CCC(N)=O)NC(=O)[C@H](C)NC(=O)[C@H](CCSC)NC(=O)[C@H](CCC(N)=O)NC(=O)[C@H](CCC(=O)O)NC(=O)[C@@H]1CCCN1C(=O)[C@@H](NC(=O)[C@H](C)NC(=O)[C@H](CC(N)=O)NC(=O)[C@H](CC(=O)O)NC(=O)CNC(=O)[C@@H]1CCCN1C(=O)[C@H](Cc1ccc(O)cc1)NC(=O)[C@@H](NC(=O)[C@@H]1CCCN1C(=O)[C@H](CCC(=O)O)NC(=O)[C@H](CC(C)C)NC(=O)[C@@H]1CCCN1C(=O)[C@H](C)N)C(C)C)[C@@H](C)O)C(=O)N[C@@H](CC(N)=O)C(=O)N[C@@H](CCSC)C(=O)N[C@@H](CC(C)C)C(=O)N[C@H](C(=O)N[C@@H](CCCNC(=N)N)C(=O)N1CCC[C@H]1C(=O)N[C@@H](CCCNC(=N)N)C(=O)N[C@@H](Cc1ccc(O)cc1)C(N)=O)[C@@H](C)O` [PP], in data set [4], the half-life entry is on record as “approximately 10 minutes”.
